Source: the CheMixHub viscosity set

Assay: xn = mol fraction of the nth substance listed

CCOc1ccccc1 + CCNc1ccccc1
viscosity [mPa·s], 101 kPa
Details	293.15 K	298.15 K	303.15 K	308.15 K	313.15 K	318.15 K	323.15 K
x2 = 0.0508	1.253	1.161	1.063	0.999	0.933	0.868	0.808
x2 = 0.1098	1.291	1.19	1.088	1.021	0.953	0.884	0.823
x2 = 0.1509	1.317	1.211	1.105	1.036	0.965	0.896	0.832
x2 = 0.2097	1.355	1.241	1.131	1.057	0.983	0.91	0.845
x2 = 0.2533	1.386	1.265	1.151	1.072	0.996	0.921	0.855
x2 = 0.3046	1.423	1.295	1.176	1.093	1.012	0.935	0.866
x2 = 0.3501	1.459	1.323	1.2	1.112	1.028	0.948	0.878
x2 = 0.4081	1.51	1.364	1.234	1.141	1.052	0.967	0.894
x2 = 0.4533	1.552	1.397	1.262	1.164	1.071	0.984	0.908
x2 = 0.5003	1.599	1.435	1.295	1.191	1.094	1.003	0.924
x2 = 0.5519	1.655	1.479	1.333	1.223	1.122	1.027	0.944
x2 = 0.6068	1.719	1.531	1.377	1.26	1.153	1.054	0.967
x2 = 0.6496	1.772	1.574	1.414	1.291	1.18	1.077	0.986
x2 = 0.7065	1.846	1.633	1.464	1.333	1.215	1.107	1.012
x2 = 0.7497	1.906	1.682	1.506	1.367	1.244	1.131	1.033
x2 = 0.7998	1.978	1.739	1.554	1.407	1.278	1.16	1.058
x2 = 0.8505	2.055	1.798	1.604	1.447	1.311	1.188	1.082
x2 = 0.9019	2.133	1.859	1.653	1.487	1.344	1.214	1.105
x2 = 0.9502	2.205	1.914	1.699	1.525	1.374	1.239	1.125

CC(=O)[C@@]12O[C@@H]1C[C@H]1[C@@H]3CCC4=CC(=O)CC[C@]4(C)[C@H]3[C@H](O)C[C@@]12C + ClC(Cl)Cl
viscosity [mPa·s]
Details	295.7 K	299.65 K	303.75 K	307.65 K	312.15 K	317.15 K	321.15 K
100 kPa, x1 = 0.00321	0.57	0.536	0.52	0.498	0.491	0.48	0.454
100 kPa, x1 = 0.004735	0.582	0.553	0.53	0.506	0.5	0.485	0.463
100 kPa, x1 = 0.006205	0.596	0.564	0.544	0.515	0.505	0.492	0.474
100 kPa, x1 = 0.007786	0.612	0.577	0.552	0.524	0.515	0.499	0.48
100 kPa, x1 = 0.009221	0.629	0.593	0.566	0.532	0.522	0.506	0.489
100 kPa, x1 = 0.01088	0.646	0.609	0.578	0.544	0.529	0.516	0.501
100 kPa, x1 = 0.01243	0.662	0.617	0.585	0.554	0.54	0.523	0.513
101 kPa, x1 = 0.003181	0.57	0.536	0.52	0.498	0.491	0.48	0.454
101 kPa, x1 = 0.00467	0.582	0.553	0.53	0.506	0.5	0.485	0.463
101 kPa, x1 = 0.006096	0.596	0.564	0.544	0.515	0.505	0.492	0.474
101 kPa, x1 = 0.007615	0.612	0.577	0.552	0.524	0.515	0.499	0.48
101 kPa, x1 = 0.008981	0.629	0.593	0.566	0.532	0.522	0.506	0.489
101 kPa, x1 = 0.01055	0.646	0.609	0.578	0.544	0.529	0.516	0.501
101 kPa, x1 = 0.01199	0.662	0.617	0.585	0.554	0.54	0.523	0.513

OCC(O)CO + O
Details	viscosity [mPa·s]
293.15 K, 101.33 kPa, x1 = 0.021	1.307
293.15 K, 101.33 kPa, x1 = 0.047	1.952
293.15 K, 101.33 kPa, x1 = 0.077	2.817
293.15 K, 101.33 kPa, x1 = 0.12	4.618
293.15 K, 101.33 kPa, x1 = 0.16	7.693
298.15 K, 101 kPa, x1 = 0.0866	2.708
298.15 K, 101 kPa, x1 = 0.1636	7.353
298.15 K, 101 kPa, x1 = 0.2269	13.77
298.15 K, 101 kPa, x1 = 0.3134	27.75
298.15 K, 101 kPa, x1 = 0.439	59.74
298.15 K, 101 kPa, x1 = 0.5124	88.48
298.15 K, 101 kPa, x1 = 0.6378	163.1
298.15 K, 101 kPa, x1 = 0.7036	220.8
298.15 K, 101 kPa, x1 = 0.7684	297.3
298.15 K, 101 kPa, x1 = 0.8478	429.9
298.15 K, 101 kPa, x1 = 0.9176	604.8
298.15 K, 101 kPa, x1 = 0.9561	734.9
300.65 K, 101 kPa, x1 = 0.2636	10.84
300.65 K, 101 kPa, x1 = 0.2837	12.68
300.65 K, 101 kPa, x1 = 0.3153	16.23
300.65 K, 101 kPa, x1 = 0.3391	19.56
300.65 K, 101 kPa, x1 = 0.365	23.64
300.65 K, 101 kPa, x1 = 0.3785	26.06
300.65 K, 101 kPa, x1 = 0.4055	31.58
300.65 K, 101 kPa, x1 = 0.4294	37.49
300.65 K, 101 kPa, x1 = 0.485	54.01
300.65 K, 101 kPa, x1 = 0.5117	64.08
300.65 K, 101 kPa, x1 = 0.5472	79.81
300.65 K, 101 kPa, x1 = 0.5575	85.2
300.65 K, 101 kPa, x1 = 0.5867	102.7
300.65 K, 101 kPa, x1 = 0.6349	135.1
300.65 K, 101 kPa, x1 = 0.659	154.4
300.65 K, 101 kPa, x1 = 0.6978	191.6
300.65 K, 101 kPa, x1 = 0.7166	212.1
300.65 K, 101 kPa, x1 = 0.7442	245.6
300.65 K, 101 kPa, x1 = 0.7646	266.3
300.65 K, 101 kPa, x1 = 0.7947	309.7
300.65 K, 101 kPa, x1 = 0.8114	336.6
300.65 K, 101 kPa, x1 = 0.8274	363.6
300.65 K, 101 kPa, x1 = 0.8428	389.9
300.65 K, 101 kPa, x1 = 0.859	420.7
300.65 K, 101 kPa, x1 = 0.9082	519.8
300.65 K, 101 kPa, x1 = 0.9434	607.3
300.65 K, 101 kPa, x2 = 0.0171	715.5
303.15 K, 101 kPa, x1 = 0.00777	0.877
303.15 K, 101 kPa, x1 = 0.0152	0.956
303.15 K, 101 kPa, x1 = 0.02262	1.04
303.15 K, 101 kPa, x1 = 0.03118	1.147
303.15 K, 101 kPa, x1 = 0.03958	1.259
303.15 K, 101 kPa, x1 = 0.04604	1.351
303.15 K, 101 kPa, x1 = 0.05683	1.52
303.15 K, 101 kPa, x1 = 0.07063	1.751
303.15 K, 101 kPa, x1 = 0.07885	1.907
303.15 K, 101 kPa, x1 = 0.08828	2.098
303.15 K, 101 kPa, x1 = 0.1003	2.364
303.15 K, 101 kPa, x1 = 0.1112	2.625
303.15 K, 101 kPa, x1 = 0.1223	2.919
303.15 K, 101 kPa, x1 = 0.1369	3.347
303.15 K, 101 kPa, x1 = 0.154	3.909
303.15 K, 101 kPa, x1 = 0.171	4.552
303.15 K, 101 kPa, x1 = 0.1874	5.236
303.15 K, 101 kPa, x1 = 0.1967	5.679
303.15 K, 101 kPa, x1 = 0.2067	6.187
303.15 K, 101 kPa, x1 = 0.2178	6.77
303.15 K, 101 kPa, x1 = 0.225	7.222
303.15 K, 101 kPa, x1 = 0.2378	7.986
303.15 K, 101 kPa, x1 = 0.2459	8.548
303.15 K, 101 kPa, x1 = 0.2622	9.75
303.15 K, 101 kPa, x1 = 0.2636	9.8
303.15 K, 101 kPa, x1 = 0.2837	11.4
303.15 K, 101 kPa, x1 = 0.3153	14.53
303.15 K, 101 kPa, x1 = 0.3391	17.41
303.15 K, 101 kPa, x1 = 0.365	20.97
303.15 K, 101 kPa, x1 = 0.3785	23.02
303.15 K, 101 kPa, x1 = 0.4055	27.81
303.15 K, 101 kPa, x1 = 0.4294	32.86
303.15 K, 101 kPa, x1 = 0.485	46.9
303.15 K, 101 kPa, x1 = 0.5117	55.29
303.15 K, 101 kPa, x1 = 0.5472	68.64
303.15 K, 101 kPa, x1 = 0.5575	73.12
303.15 K, 101 kPa, x1 = 0.5867	87.65
303.15 K, 101 kPa, x1 = 0.6349	114.5
303.15 K, 101 kPa, x1 = 0.659	130.4
303.15 K, 101 kPa, x1 = 0.6978	161
303.15 K, 101 kPa, x1 = 0.7166	177.9
303.15 K, 101.33 kPa, x1 = 0.021	1.057
303.15 K, 101.33 kPa, x1 = 0.047	1.46
303.15 K, 101.33 kPa, x1 = 0.077	2.006
303.15 K, 101.33 kPa, x1 = 0.12	3.309
303.15 K, 101.33 kPa, x1 = 0.16	5.252
313.15 K, 101.33 kPa, x1 = 0.021	0.843
313.15 K, 101.33 kPa, x1 = 0.047	1.086
313.15 K, 101.33 kPa, x1 = 0.077	1.465
313.15 K, 101.33 kPa, x1 = 0.12	2.226
313.15 K, 101.33 kPa, x1 = 0.16	3.499
323.15 K, 101.33 kPa, x1 = 0.021	0.68
323.15 K, 101.33 kPa, x1 = 0.047	0.876
323.15 K, 101.33 kPa, x1 = 0.077	1.095
323.15 K, 101.33 kPa, x1 = 0.12	1.666
323.15 K, 101.33 kPa, x1 = 0.16	2.587
